The structures appear in SMILES notation. Where “and” joins values, the source holds several entries; their conditions need not be identical. Equal values may be shown once. Read-outs that look alike come from different tables or passages of the source.

In data set [1] the test system is Mtb growth in cholesterol media. Also noted: method as in PubChem AID 1259343. Conditions: ref PubChem AID 1259343; cited from earlier work.
The test system of data set [2] is CDC1551(rv2390c′::GFP) reporter Mtb strain, response to high [Cl−]. The data set can be described thus: microbe, parasite or virus in culture. It is filed as cell-based, Mycobacterium tuberculosis. Conditions: primary screen, 10 µM.
Data set [3] has as its system CDC1551(rv2390c′::GFP) reporter Mtb strain. Conditions: for Normalized % induction: Fig. 2C, DMSO = 100; for Ability to increase rv2390c′::GFP reporter signal in high [Cl−]: pH 7.
For data set [4], the system named is Mtb growth in J774 macrophage-like cells. The data set can be described thus: J774 infection in 96-well plates, mKO fluorescence 6 days post-infection. The format is cell-based, Mycobacterium tuberculosis. Conditions: for Inhibition of Mtb growth in J774 cells: 10 μM; for % Growth: Fig. 2D, DMSO = 100. As to the method: For J774 infection in 96-well plates, 1.8 × 10^5 J774 cells were seeded per well in 180 μl of J774 infection media 1 day prior to infection. On the day of the assay, log-phase Mtb constitutively expressing mKO were pelleted and resuspended in 1 ml basal uptake buffer, passed 6× through a tuberculin syringe with a 25 G × 5/8″ needle, then resuspended in J774 infection media to a final OD600 = 0.2. Media was removed from 96-well plate containing the J774 cells, with 140 μl of fresh J774 infection media added back to each well. A volume of 40 μl of the Mtb suspension at OD600 = 0.2 was added to each well, followed by addition of appropriate concentration of compound or DMSO in a 20-μl final volume in J774 infection media (compound final concentration 10 μM, rifampicin final concentration 5 μM, DMSO final concentration 0.1%/well). Bacterial mKO fluorescence was read immediately after infection using a Biotek Synergy Neo2 microplate reader (bottom read monochromator, excitation 543/10 nm, emission 565/10 nm), and again 6 days post-infection. Plates were kept in humidified ziplock bags in a 37°C, 5% CO2 incubator. mKO fluorescence in DMSO-treated control samples were defined as 100% growth, and fluorescence observed in treatment conditions calculated as a percentage from that set value.

For data set [5], the system named is Mtb. In words: Mtb growth assay in standard 7H9 medium (OD600). Conditions: Fig. 2F.
Source text: (§1) Bacterial growth was tracked by measuring OD600 every 3 days for 12 days. […] Bacterial growth was tracked by measurement of OD600 every 3 days over 12 days.
In data set [6] the test system is Mtb. In words: Mtb growth assay in cholesterol medium (OD600). Conditions: for Inhibition of Mtb growth in cholesterol media: 10 μM, OD600 over 12 days; for OD600: Fig. 2G.
Source text: as §1
Another data set concerns Mtb-infected J774 cells. Conditions: Fig. 3F.
For another data set, the system named is J774 cells. The data set can be described thus: Intracellular drug accumulation assay in J774 cells (LC-MS). Conditions: for nmol/106 cells: Fig. 3F.
Data set [7] has as its system WT Mtb (Erdman) in primary murine BMDMs. In words: Primary murine bone marrow-derived macrophage infection, CFU. The format is cell-based, Mycobacterium tuberculosis. Conditions: 10 μM, 8-day infection time course, vs DMSO. As for the experimental part:
C57BL/6J wild-type mice (Jackson Laboratories) were used for extraction of BMDMs. Cells were harvested and expanded in DMEM containing 10% FBS, 15% L-cell conditioned media, 2 mM L-glutamine, 1 mM sodium pyruvate, and penicillin/streptomycin as needed in a 37°C incubator in a 5% CO2 atmosphere. […] Macrophages were lysed with water containing 0.01% sodium dodecyl sulfate and a dilution series of the samples plated on 7H10 agar for CFU determination.

On to `c1ccc2oc(N3CCN(Cc4ccc(C5CCCO5)s4)CC3)nc2c1` (stereo not shown) [PubChem SID: 340463409, reference compound], for which the “Call in screen for inhibition of Mtb growth in cholesterol media” value in [1] is given as “having antitubercular activity in cholesterol media”. The “Dysregulation of Mtb Cl− response in original rv2390c′::GFP screen” value in [2] is given as “did not demonstrate dysregulation”.

Take `CCSc1ncc(CN2CCN(c3nc4ccccc4s3)CC2)cn1` [JSF-4298, 2-(4-((2-(ethylthio)pyrimidin-5-yl)methyl)piperazin-1-yl)benzo[d]thiazole]: the Normalized % induction was 128.692% in [3] (average of 3 replicates); 127.109% and 127.993% and 130.974% in data set [3] (individual replicates). Also, the “Ability to increase rv2390c′::GFP reporter signal in high [Cl−]” value in data set [3] is reported as “continuing to demonstrate the phenotypes seen with the parental C6 compound”. In data set [4] (6 days post-infection), the “Inhibition of Mtb growth in J774 cells” value is “continuing to demonstrate the phenotypes seen with the parental C6 compound”. In addition, the “% Growth” value in data set [4] (average of 4 replicates) is 72.2652%; in data set [4] (individual replicates), 65.6342% and 77.3722% and 76.7437% and 69.3109%. Also, the OD600 in the data set on Mtb [5] (day 3, average) was 0.1867; in the data set on Mtb [5] (day 3, individual replicates) it was 0.2 and 0.18 (2×); in the data set on Mtb [5] (day 6, average), 0.38; in the data set on Mtb [5] (day 6, individual replicates) it was 0.36 and 0.38 and 0.4; with Mtb [5] (day 9, average), 0.5067; with Mtb [5] (day 9, individual replicates) it was 0.5 (2×) and 0.52. Moreover, the OD600 was 0.6467 with Mtb [5] (day 12, average); 0.64 (2×) and 0.66 in the data set with Mtb [5] (day 12, individual replicates); 0.06 with Mtb [6] (day 3, average); 0.06 in the data set on Mtb [6] (day 3, individual replicates); 0.09333 in the data set with Mtb [6] (day 6, average); 0.08 and 0.1 (2×) with Mtb [6] (day 6, individual replicates). Moreover, the OD600 was 0.1333 with Mtb [6] (day 9, average); 0.14 (2×) and 0.12 with Mtb [6] (day 9, individual replicates); 0.1533 with Mtb [6] (day 12, average); 0.16 (2×) and 0.14 with Mtb [6] (day 12, individual replicates). In the data set with Mtb [6], the “Inhibition of Mtb growth in cholesterol media” value is reported as “continuing to demonstrate the phenotypes seen with the parental C6 compound”.

With `CO[C@H]1/C=C/O[C@@]2(C)Oc3c(C)c(O)c4c(O)c(c(/C=N/N5CCN(C)CC5)c(O)c4c3C2=O)NC(=O)/C(C)=C\C=C\[C@H](C)[C@H](O)[C@@H](C)[C@@H](O)[C@@H](C)[C@H](OC(C)=O)[C@@H]1C` [Rif, rifampicin, reference compound], the “% growth of Mtb in J774 cells, average” value in data set [4] (5 μM rifampicin, 6 days post-infection, DMSO = 100%, Fig 1H) was found to be 8.618%. Further, the “% Growth” value in [4] (average of 4 replicates) is 10.744%; in [4] (individual replicates), 10.4241% and 10.7119% and 11.5524% and 10.2878%.

For the molecule `c1ccc2oc(N3CCN(Cc4cncnc4)CC3)nc2c1` [JSF-4297, 2-(4-(pyrimidin-5-ylmethyl)piperazin-1-yl)benzo[d]oxazole], the Normalized % induction was 100.379% in data set [3] (average of 3 replicates); 88.9158% and 107.146% and 105.074% in [3] (individual replicates). Besides, the “Ability to increase rv2390c′::GFP reporter signal in high [Cl−]” value in data set [3] is given as “lost the ability”. The “Inhibition of Mtb growth in J774 cells” value in data set [4] (6 days post-infection) is given as “loss of the ability to inhibit Mtb growth”. Also, the “% Growth” value was 108.514% in data set [4] (average of 4 replicates); 102.242% and 116.384% and 110.602% and 104.828% in [4] (individual replicates). The OD600 was 0.1933 with Mtb [5] (day 3, average); 0.18 (2×) and 0.22 in the data set on Mtb [5] (day 3, individual replicates); 0.4 in the data set with Mtb [5] (day 6, average); 0.4 and 0.42 and 0.38 in the data set on Mtb [5] (day 6, individual replicates); 0.5467 with Mtb [5] (day 9, average); 0.56 (2×) and 0.52 with Mtb [5] (day 9, individual replicates). For the same molecule, the OD600 in the data set on Mtb [5] (day 12, average) is 0.7; in the data set with Mtb [5] (day 12, individual replicates) it was 0.7 and 0.72 and 0.68; in the data set on Mtb [6] (day 3, average), 0.09333; in the data set on Mtb [6] (day 3, individual replicates), 0.1 (2×) and 0.08; with Mtb [6] (day 6, average) it was 0.3133; in the data set on Mtb [6] (day 6, individual replicates), 0.32 (2×) and 0.3. Besides, the OD600 is 0.4533 in the data set with Mtb [6] (day 9, average); 0.46 (2×) and 0.44 in the data set on Mtb [6] (day 9, individual replicates); 0.5 in the data set with Mtb [6] (day 12, average); 0.48 and 0.5 and 0.52 in the data set with Mtb [6] (day 12, individual replicates). The nmol/106 cells in the data set with Mtb-infected J774 cells (Experiment 1 - Mtb-infected J774, average) is 0.006771 nmol/106 cells; in the data set with Mtb-infected J774 cells (Experiment 1 - Mtb-infected J774, individual replicates), 0.007341 nmol/106 cells and 0.006486 nmol/106 cells (2×); with Mtb-infected J774 cells (Experiment 2 - Mtb-infected J774, average) it was 0.007288 nmol/106 cells; in the data set with Mtb-infected J774 cells (Experiment 3 - Mtb-infected J774, average), 0.039 nmol/106 cells; with Mtb-infected J774 cells (Experiment 3 - Mtb-infected J774, individual replicates) it was 0.03001 nmol/106 cells and 0.048 nmol/106 cells; in the data set with J774 cells (Experiment 1 - J774, average), 0 nmol/106 cells. In addition, the nmol/106 cells with J774 cells (Experiment 1 - J774, individual replicates) turned out to be 0 nmol/106 cells; with J774 cells (Experiment 2 - J774, average) it was 0 nmol/106 cells; in the data set on J774 cells (Experiment 2 - J774, individual replicates), 0 nmol/106 cells; with J774 cells (Experiment 3 - J774, average) it was 0 nmol/106 cells; in the data set with J774 cells (Experiment 3 - J774, individual replicates) it was 0 nmol/106 cells. Besides, the “Intracellular accumulation in J774 cells” value in the data set on J774 cells (24 hours) is “no detectable accumulation”. The “Effect on bacterial load / Mtb growth in primary murine BMDMs” value in data set [7] is reported as “loss of the ability to inhibit Mtb growth”. For the same molecule, the “Inhibition of Mtb growth in cholesterol media” value in the data set on Mtb [6] is “no longer inhibited Mtb growth”.
